Experimental data reported in ChEMBL document CHEMBL1201862, “PubChem BioAssay data set” (2004).
Calls of active or inactive are those of the source.

Assays:
[1] = target: Rho-associated protein kinase 2 (Homo sapiens, UniProt O75116); format: functional
[2] = target: Mitogen-activated protein kinase 13 (Homo sapiens, UniProt O15264); format: functional
[3] = target: Melanin-concentrating hormone receptor 1 (Homo sapiens, UniProt Q99705); test: Late-stage fluorescence-based counterscreen for antagonists of the G-protein coupled receptor 7 (GPR7): cell-based dose response assay to identify antagonists of the melanin-concentrating hormone receptor 1 (MCHR1) Set 5.; format: functional
Melanin-concentrating hormone receptor 1, sequence (Q99705 whole entry): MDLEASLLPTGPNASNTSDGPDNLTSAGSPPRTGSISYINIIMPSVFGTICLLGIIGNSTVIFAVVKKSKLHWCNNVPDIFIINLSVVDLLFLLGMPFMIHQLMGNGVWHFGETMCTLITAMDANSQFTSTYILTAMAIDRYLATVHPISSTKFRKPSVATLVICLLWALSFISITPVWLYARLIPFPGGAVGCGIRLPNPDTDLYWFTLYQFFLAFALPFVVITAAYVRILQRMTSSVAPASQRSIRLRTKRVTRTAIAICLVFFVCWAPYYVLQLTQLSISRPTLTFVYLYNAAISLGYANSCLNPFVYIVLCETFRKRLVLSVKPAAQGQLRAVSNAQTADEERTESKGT

[4] = target: Neuropeptides B/W receptor type 1 (Homo sapiens, UniProt P48145); test: GPR7 antagonist potency, late-stage follow-up, cell-based, fluorescence, dose response, set 5 (AID 588566); format: functional
Neuropeptides B/W receptor type 1, sequence (P48145 whole entry): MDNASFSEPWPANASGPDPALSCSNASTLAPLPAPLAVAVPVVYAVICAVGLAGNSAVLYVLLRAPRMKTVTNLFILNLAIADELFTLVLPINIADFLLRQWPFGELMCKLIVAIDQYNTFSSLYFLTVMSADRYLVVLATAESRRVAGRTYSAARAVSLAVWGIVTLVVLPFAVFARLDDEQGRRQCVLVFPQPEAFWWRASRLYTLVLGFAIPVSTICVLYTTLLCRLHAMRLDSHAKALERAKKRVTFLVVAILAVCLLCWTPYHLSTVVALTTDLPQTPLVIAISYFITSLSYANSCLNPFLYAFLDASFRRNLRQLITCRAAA

[5] = Luminescence Cell-Based Dose Retest to Confirm Inhibitors of Cancer Stem Cells. [Related pubchem assays (depositor defined):AID2717, AID2721]; format: functional; details: Homo sapiens
[6] = target: T1, Orexin receptor type 2 (Homo sapiens, UniProt O43614); test: Counterscreen assay for antagonists of the orexin 1 receptor (OX1R; HCRTR1): Fluorescence-based cell-based dose response assay for antagonists of the orexin 2 receptor (OX2R; HCRTR2), run by assay provider.; format: functional
T1 sequence (O43614 whole entry): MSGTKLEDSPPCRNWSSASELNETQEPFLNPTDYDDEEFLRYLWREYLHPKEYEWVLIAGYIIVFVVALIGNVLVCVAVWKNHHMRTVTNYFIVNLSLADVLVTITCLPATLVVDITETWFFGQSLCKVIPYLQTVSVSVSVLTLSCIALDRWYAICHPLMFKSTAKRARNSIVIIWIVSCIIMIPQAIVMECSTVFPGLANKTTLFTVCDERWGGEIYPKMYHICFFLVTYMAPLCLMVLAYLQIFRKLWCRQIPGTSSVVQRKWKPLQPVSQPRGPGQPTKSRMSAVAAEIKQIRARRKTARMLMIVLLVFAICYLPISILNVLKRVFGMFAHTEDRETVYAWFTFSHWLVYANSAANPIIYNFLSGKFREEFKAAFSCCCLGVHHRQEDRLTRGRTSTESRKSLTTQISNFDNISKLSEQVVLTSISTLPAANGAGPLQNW

[7] = system: CHO-K1; test: (§1) Counterscreen for antagonists of the orexin 1 receptor (OX1R; HCRTR1): Homogeneous time resolved fluorescence (HTRF)-based cell-based dose response assay to identify antagonists of the parental CHO-K1 cell line. [Related pubchem assays (depositor defined):AID434989, AID435008, AID463079, AID485270, AID492963, AID492964, AID492965, AID493232, AID504699, AID504701]; format: functional; details: Cricetulus griseus
[8] = target: T2, Orexin/Hypocretin receptor type 1 (Homo sapiens, UniProt O43613); test: Homogeneous Time Resolved Fluorescence (HTRF)-based cell-based high throughput dose response assay for antagonists of the orexin 1 receptor (OX1R; HCRTR1). [Related pubchem assays (depositor defined):AID434989, AID435008, AID463079, AID485270, AID492963, AID492964, AID492965, AID493232, AID504717, AID504718]; format: functional
T2 sequence (O43613 whole entry): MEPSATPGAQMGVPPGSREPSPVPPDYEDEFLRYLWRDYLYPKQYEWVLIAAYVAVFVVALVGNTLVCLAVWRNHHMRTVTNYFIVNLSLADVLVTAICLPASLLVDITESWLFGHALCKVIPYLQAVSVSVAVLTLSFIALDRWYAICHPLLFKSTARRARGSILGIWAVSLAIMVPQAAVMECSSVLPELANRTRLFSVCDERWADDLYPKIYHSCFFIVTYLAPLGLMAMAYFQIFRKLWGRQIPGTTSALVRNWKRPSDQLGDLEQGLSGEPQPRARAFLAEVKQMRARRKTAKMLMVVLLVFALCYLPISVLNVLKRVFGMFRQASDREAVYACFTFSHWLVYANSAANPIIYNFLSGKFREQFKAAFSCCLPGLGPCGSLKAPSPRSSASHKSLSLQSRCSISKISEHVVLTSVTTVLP

[9] = target: T1, Orexin receptor type 2; test: Counterscreen assay for antagonists of the orexin 1 receptor (OX1R; HCRTR1): Homogeneous Time Resolved Fluorescence (HTRF)-based cell-based dose response assay for antagonists of the orexin 2 receptor (OX2R; HCRTR2), run by assay provider.; format: functional
[10] = as §1, with “Fluorescence-based” for “Homogeneous time resolved fluorescence (HTRF)-based”, “cell-based high throughput” for “cell-based”, “CHO” for “CHO-K1”; format: functional
[11] = target: T2, Orexin/Hypocretin receptor type 1; test: Fluorescence-based cell-based high throughput dose response assay for antagonists of the orexin 1 receptor (OX1R; HCRTR1). [Related pubchem assays (depositor defined):AID434989, AID435008, AID463079, AID485270, AID492963, AID492964, AID492965, AID493232, AID504717, AID504718]; format: functional
[12] = target: Prothrombin (Bos taurus, UniProt P00735); test: thrombin inhibition, dose response, biochemical, fluorescence polarization, uHTS hits (AID 602369); format: functional
[13] = target: 72 kDa type IV collagenase (Homo sapiens, UniProt P08253); test: Dose Response validation of uHTS RPN11 inhibitor hits using a MMP-2 Fluorescence assay.; format: functional
[14] = target: 26S proteasome non-ATPase regulatory subunit 14 (Homo sapiens, UniProt O00487); test: inhibition of proteasome subunit RPN11 – biochemical, fluorescence polarization, uHTS hits, confirmation (AID 602368); format: functional
26S proteasome non-ATPase regulatory subunit 14, sequence (O00487 whole entry): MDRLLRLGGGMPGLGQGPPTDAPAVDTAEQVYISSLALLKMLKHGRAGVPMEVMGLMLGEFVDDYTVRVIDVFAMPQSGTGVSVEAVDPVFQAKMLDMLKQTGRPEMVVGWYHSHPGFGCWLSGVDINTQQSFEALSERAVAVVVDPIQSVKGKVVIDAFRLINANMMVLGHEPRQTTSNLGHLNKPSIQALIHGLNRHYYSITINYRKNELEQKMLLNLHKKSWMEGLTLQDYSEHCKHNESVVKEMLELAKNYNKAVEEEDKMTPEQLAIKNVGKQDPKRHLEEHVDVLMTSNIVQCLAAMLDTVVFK

[15] = inhibition of K1F phage lysis, E. coli UTI89, bacterial capsule biogenesis inhibitors, alamar blue (AID 488966); format: functional
[16] = target: Induced myeloid leukemia cell differentiation protein Mcl-1 (Homo sapiens, UniProt Q07820); format: functional
Induced myeloid leukemia cell differentiation protein Mcl-1, sequence (Q07820 whole entry): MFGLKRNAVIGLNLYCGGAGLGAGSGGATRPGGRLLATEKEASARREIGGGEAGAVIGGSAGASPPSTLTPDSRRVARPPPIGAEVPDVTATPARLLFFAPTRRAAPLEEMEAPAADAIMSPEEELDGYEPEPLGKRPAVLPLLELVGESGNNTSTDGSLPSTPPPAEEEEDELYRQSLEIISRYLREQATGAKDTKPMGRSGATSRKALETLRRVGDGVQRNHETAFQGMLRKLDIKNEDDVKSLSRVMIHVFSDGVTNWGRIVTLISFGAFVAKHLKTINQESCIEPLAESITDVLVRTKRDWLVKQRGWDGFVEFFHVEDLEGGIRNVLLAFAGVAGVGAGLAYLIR

[17] = target: Genome polyprotein (Hepatitis C virus, UniProt Q2Q167); test: HCV core protein dimerization inhibitors, dose response, biochemical, TR-FRET (AID 2159); set-up: species or system Hepacivirus hominis;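 also: blocks dimerization of HCV core protein measured by TR-FRET between tagged core106 pairs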
Genome polyprotein, sequence (Q2Q167 whole entry): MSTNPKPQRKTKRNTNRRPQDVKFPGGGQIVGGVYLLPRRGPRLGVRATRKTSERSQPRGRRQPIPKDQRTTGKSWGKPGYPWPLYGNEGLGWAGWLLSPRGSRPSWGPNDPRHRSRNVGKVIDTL

[18] = target: Large T antigen (Simian virus 40, UniProt P03070); format: functional, Betapolyomavirus macacae;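 also: Confirmatory-stage PubChem screen for compounds that inhibit SV40 T antigen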
Large T antigen, sequence (P03070 whole entry): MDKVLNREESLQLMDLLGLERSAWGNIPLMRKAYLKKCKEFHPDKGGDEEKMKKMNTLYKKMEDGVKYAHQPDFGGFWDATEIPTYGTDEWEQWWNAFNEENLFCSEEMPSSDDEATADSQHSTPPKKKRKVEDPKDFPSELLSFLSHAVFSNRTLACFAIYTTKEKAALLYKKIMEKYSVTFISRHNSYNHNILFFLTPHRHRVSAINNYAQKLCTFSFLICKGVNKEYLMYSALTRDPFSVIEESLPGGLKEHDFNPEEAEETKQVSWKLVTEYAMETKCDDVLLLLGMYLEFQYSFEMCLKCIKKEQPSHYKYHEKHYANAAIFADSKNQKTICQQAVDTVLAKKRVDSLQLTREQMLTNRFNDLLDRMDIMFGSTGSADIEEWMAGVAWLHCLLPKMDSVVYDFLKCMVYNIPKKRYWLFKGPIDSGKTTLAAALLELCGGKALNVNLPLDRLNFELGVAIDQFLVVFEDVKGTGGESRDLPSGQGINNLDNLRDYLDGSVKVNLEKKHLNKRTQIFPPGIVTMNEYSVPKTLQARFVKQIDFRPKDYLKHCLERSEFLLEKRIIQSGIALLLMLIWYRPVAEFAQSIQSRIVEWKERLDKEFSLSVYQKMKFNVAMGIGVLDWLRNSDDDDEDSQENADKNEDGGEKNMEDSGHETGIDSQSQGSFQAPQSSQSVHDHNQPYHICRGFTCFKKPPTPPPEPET

[19] = inhibitors of SNCA 5'UTR-driven reporter translation, confirmation, H4 neuroglioma cells, luminescence (AID 1988); format: functional, cell-based
[20] = HEK293T cytotoxicity, dose response, cytotoxicity control for miR-122 modulator project, cell-based, activator set, cherry-pick (AID 720690); format: functional;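 also: HEK293T human cells scored for general mammalian cytotoxicity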
[21] = inhibitors of firefly luciferase expression or activity, dose response, H4 neuroglioma cells, luminescence (AID 1990); format: functional, cell-based
[22] = system: BJ; test: cytotoxicity toward BJ-TERT-LT-ST fibroblasts, dose response, cell-based, RAS-independent, luminescence (AID 1935); format: functional; details: Homo sapiens;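 also: BJ fibroblasts immortalized with TERT plus LT and ST oncogenes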
[23] = cytotoxicity toward DRD oncogenic fibroblasts, dose response, cell-based, non-viral oncogenic, luminescence (AID 1934); format: functional; details: Homo sapiens
[24] = system: BJ; test: cells; format: functional, cell-based; details: Homo sapiens
[25] = system: INS1; test: beta cell apoptosis inhibitors, cytokine rescue, dose response, luminescence, retest (AID 449756); format: functional, cell-based; details: Rattus norvegicus;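 also: cell death triggered by IL-1 beta plus TNF-alpha plus IFN-gamma mixture; protective hits raise ATP signal compared with cytokine alone wells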
[26] = Shn3 3'UTR reporter inhibitors, dose response, cell-based, Clone20 osteoblasts, firefly luciferase, cherry-picked (AID 624132); format: functional;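 also: firefly luciferase luminescence from reporter carrying the Shn3 3'UTR in osteoblasts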
[27] = system: BJ; test: cytotoxicity toward Ras-transformed BJeLR fibroblasts, dose response, cell-based, alamar blue fluorescence, cherrypicked samples (AID 2631); format: functional; details: Homo sapiens;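 also: confirmatory dose-response assay in RAS-dependent BJ fibroblasts engineered with TERT, LT and ST, with cytotoxicity read by fluorescence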
[28] = control 3'UTR Renilla luciferase suppression, dose response, counter-screen for Shn3 inhibitor project, cell-based, Clone20-Shn3RL, cherry-picked (AID 624133); format: functional
[29] = inhibitors of PGC1a acetylation in cells, dose response, cell-based, cherry-picked samples (AID 720514); format: functional;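 also: potency may reflect raised or lowered acetylation signal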
[30] = HEK293T cytotoxicity, dose response, cytotoxicity control for miR-122 modulator project, cell-based, inhibitor set, cherry-pick, set 2 (AID 720697); format: functional
[31] = HepG2 cell cytotoxicity, dose response, cytotoxicity control for Shn3 inhibitor project, CellTiter-Glo, cherry-picked (AID 624134); format: functional, cell-based
[32] = Luminescence-based dose response cell-based high throughput screening assay for cytotoxic compounds using the IEC-6 intestinal epithelial cell line. [Related pubchem assays: 1858 (Summary AID.), 1825 (Counterscreen.), 1907 (Confirmation screen.)]; format: functional
[33] = Luminescence Cell-Based Dose Response HTS to Identify Inhibitors of 5'UTR Stem-Loop Driven Prion Protein mRNA Translation in H4 Neuroglioblastoma Cells. [Related pubchem assays: 1827 (Project Summary), 1813 (Primary HTS)]; format: functional
[34] = miR-122 activators in hepatoma reporter cells, dose response, cell-based, Huh7 psiCHECK-miR122, Renilla luciferase, cherry-picked (AID 651956); format: functional;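 also: huh7 hepatoma cells stably carrying a psiCHECK-2 miR-122 sensor plasmid; renilla luciferase signal reporting endogenous miR-122 activity after 48 h compound exposure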
[35] = system: BJ; test: cytotoxicity toward BJ-TERT fibroblasts, dose response, cell-based, RAS-independent, luminescence (AID 1933); format: functional; details: Homo sapiens
[36] = target: T3, High affinity choline transporter 1 (Homo sapiens, UniProt Q9GZV3); test: CHT activators, dose response, cell-based, 10-point CRC, membrane potential dye (AID 602376); format: functional
T3 sequence (Q9GZV3 whole entry): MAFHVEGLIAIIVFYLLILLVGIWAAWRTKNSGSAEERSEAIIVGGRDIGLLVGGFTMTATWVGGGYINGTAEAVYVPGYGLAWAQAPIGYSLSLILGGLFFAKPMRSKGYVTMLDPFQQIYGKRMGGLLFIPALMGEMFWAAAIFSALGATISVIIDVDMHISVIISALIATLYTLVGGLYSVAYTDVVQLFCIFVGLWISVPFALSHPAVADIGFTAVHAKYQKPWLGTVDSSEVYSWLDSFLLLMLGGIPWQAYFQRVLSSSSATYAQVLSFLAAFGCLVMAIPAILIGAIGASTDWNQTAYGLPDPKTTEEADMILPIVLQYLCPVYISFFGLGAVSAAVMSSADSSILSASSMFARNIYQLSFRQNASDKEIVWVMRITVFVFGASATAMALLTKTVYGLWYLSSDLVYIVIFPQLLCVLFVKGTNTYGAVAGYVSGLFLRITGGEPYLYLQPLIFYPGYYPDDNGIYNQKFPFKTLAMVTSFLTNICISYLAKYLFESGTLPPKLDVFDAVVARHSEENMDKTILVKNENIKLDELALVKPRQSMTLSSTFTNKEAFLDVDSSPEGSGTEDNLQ

Mitogen-activated protein kinase 13, sequence (O15264 whole entry): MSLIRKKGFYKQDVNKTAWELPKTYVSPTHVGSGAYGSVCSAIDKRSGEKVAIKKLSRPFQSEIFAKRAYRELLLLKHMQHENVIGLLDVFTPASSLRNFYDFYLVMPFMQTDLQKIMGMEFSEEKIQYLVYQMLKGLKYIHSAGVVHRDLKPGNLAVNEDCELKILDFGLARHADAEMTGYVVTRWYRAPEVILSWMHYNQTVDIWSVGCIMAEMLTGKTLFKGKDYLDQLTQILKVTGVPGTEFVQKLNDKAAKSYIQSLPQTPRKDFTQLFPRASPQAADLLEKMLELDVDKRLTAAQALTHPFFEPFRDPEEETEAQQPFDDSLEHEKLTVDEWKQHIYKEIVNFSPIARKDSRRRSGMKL
Rho-associated protein kinase 2, sequence (O75116 whole entry): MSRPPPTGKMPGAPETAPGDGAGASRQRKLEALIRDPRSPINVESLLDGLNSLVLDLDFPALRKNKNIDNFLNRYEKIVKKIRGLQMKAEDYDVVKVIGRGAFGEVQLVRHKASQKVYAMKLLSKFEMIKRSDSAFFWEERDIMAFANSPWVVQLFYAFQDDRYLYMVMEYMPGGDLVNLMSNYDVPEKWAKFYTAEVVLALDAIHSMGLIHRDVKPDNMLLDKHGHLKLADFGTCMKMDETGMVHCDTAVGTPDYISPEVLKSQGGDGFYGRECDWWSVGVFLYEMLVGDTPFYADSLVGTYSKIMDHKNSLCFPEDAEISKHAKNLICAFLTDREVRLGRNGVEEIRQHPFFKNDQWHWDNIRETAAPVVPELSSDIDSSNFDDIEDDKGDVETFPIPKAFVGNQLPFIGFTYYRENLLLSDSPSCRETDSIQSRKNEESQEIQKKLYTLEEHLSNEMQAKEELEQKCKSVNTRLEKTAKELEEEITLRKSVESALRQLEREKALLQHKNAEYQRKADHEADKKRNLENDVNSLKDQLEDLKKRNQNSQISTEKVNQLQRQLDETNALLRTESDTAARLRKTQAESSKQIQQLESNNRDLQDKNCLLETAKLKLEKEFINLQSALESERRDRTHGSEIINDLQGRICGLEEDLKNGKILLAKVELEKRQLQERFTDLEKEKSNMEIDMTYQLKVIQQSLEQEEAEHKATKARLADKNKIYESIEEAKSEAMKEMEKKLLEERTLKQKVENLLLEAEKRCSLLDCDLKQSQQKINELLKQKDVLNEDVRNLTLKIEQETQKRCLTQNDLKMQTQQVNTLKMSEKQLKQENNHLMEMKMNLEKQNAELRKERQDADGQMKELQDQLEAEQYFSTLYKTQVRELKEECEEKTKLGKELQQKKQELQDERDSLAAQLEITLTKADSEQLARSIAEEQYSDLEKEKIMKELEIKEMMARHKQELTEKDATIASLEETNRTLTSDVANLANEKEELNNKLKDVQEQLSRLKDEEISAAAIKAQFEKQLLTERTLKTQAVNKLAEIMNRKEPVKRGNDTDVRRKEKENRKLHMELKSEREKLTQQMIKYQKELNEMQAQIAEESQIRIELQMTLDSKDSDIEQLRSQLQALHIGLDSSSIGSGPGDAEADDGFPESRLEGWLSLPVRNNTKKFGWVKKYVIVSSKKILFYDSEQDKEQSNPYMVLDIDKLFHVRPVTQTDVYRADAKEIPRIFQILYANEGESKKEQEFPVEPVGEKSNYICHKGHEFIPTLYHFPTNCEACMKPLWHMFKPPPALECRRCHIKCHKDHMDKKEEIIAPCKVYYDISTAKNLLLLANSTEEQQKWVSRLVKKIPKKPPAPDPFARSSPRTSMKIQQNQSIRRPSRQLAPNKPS

With `O=C(NC(CO)Cc1ccccc1)c1ccc(-c2ccncc2)cc1` (stereo unspecified) the Ki [1] was 0.0398 µM (active) and the Ki [2] was > 7.94 µM (inactive).
With `O=c1c(Oc2ccc(C(F)(F)F)cc2)c(Cl)cnn1Cc1cccc2ccccc12` the IC50 [3] was > 20 µM (inactive) and the IC50 [4] was > 20 µM (inactive).
For `C=CCn1c2ccccc2c(=O)c2cc(C#Cc3cc(OC)cc(OC)c3)ccc21`, the AC50 [5] was 1.94 µM (active), the IC50 [6] was 11 µM (inactive) and the IC50 [7] was > 66.2 µM (inactive). For the same compound, the IC50 [8] was 1.19 µM (active), the IC50 [9] was > 50 µM (inactive) and the IC50 [10] was > 49.8 µM (inactive). For the same compound, the IC50 [11] was 7.69 µM (active).
For `CS(=O)(=O)c1ccc2c(c1)SC1=NC(=O)/C(=C/c3ccco3)C(=N)N12`, the IC50 [12] was 21.6 µM (active), the IC50 [13] was 21.2 µM (active) and the IC50 [14] was 14.4 µM (active). For the same compound, the IC50 [15] was > 150 µM (active), the IC50 [16] was 2.84 µM (active) and the IC50 [17] was > 49.8 µM (not active). For the same compound, the IC50 [18] was > 100 µM (active).
For `Cc1ccccc1OCC(O)CNC1CCC(NCC(O)COc2ccccc2C)CC1` (stereo unspecified), the EC50 [19] was 8.49 µM (active), the AC50 [20] was 9.9 µM (active) and the EC50 [21] was > 120 µM (not active). For the same compound, the EC50 [22] was 2.8 µM (inconclusive), the EC50 [23] was 3.77 µM (active) and the EC50 [24] was 5.55 µM (active). For the same compound, the AC50 [25] was 5.79 µM (active), the AC50 [26] was 4.5 µM (active) and the EC50 [27] was 0.582 µM (inconclusive). For the same compound, the AC50 [28] was 11.8 µM (active), the AC50 [29] was 6.68 µM (active) and the AC50 [30] was 6.41 µM (active). For the same compound, the AC50 [31] was 1.89 µM (active), the IC50 [32] was 2.61 µM (active) and the EC50 [33] was 8.66 µM (active). The AC50 [34] was 10.4 µM (active), the EC50 [35] was 2.62 µM (inconclusive) and the EC50 [36] was 19.3 µM (active).
